Values of other authors, collected in patent US6388175B1, “Control of leaf scald disease” (priority 1995, dated 2002).
“Also recorded” adds a separate entry of the source.

Conditions: 100° C. for 30 min

With albicidin as the substance, how does the Activity after heating read?
Its Activity after heating is “unaffected; also recorded: little activity is lost”.
